Data on twelve compounds can be found in patent publication EP1056700B1, “MEDICINAL USES OF PHENYLALKANOLS AND DERIVATES” (ZingoTX Pty Ltd, priority 1997, dated 1999).

Series [1] can be described thus: Brine shrimp toxicity bioassay. It counts as in vivo. Conditions: Artemia salina (brine shrimp), in vivo; 24 hours, 2% DMSO. From the text:
The brine shrimp assay procedure determines LC50 values of active compounds. Activities of a broad range of known active compounds are manifested as toxicity to brine shrimp (Artemia salina Leach). There are many applications of the assay including analysis of toxic substances, anaesthetics, morphine-like substances and cocarcinogenicity of phorbol esters.
The method for testing solvent toxicity used was basically that reported by J L McLaughlin in Methods of Plant Biochemistry (1991), vol. 6 (K Hostettman, ed.), Academic Press, London, 1-32. DMSO solutions of the substances to be tested were added directly to the vials containing the brine shrimp. As the concentration of DMSO that we wished to use was higher than the recommended 1% v/v testing of the toxicity of the DMSO was therefore necessary. The concentrations of DMSO tested on the shrimp, along with the results from the assay which was done in duplicate are listed below.
Brine shrimp toxicity was assayed, except for some minor modifications, according to the method of McLaughlin et al as reported in Brine Shrimp: A convenient bioassay for active plant constituents, B N Meyer, N R Ferrigni, J E Putnam, L B Jacobsen, D E Nichols and J L McLaughlin in Planta Medica (1982), 45, 31-34 and Crown gall tumours on potato discs and brine shrimp lethality: Two simple bioassays for higher plant screening and fractionation. J L McLaughlin. Methods of Plant Biochemistry (1991), vol. 6 (K Hostettman, ed.), Academic Press, London, 1-32. Ten shrimp were transferred to each of the vials and the volume adjusted to 4.9 mL. Each dose was performed in triplicate, including the control. In quick succession, the appropriate volume of additional DMSO for each dose, required to achieve a final concentration of 2%, was added before the appropriate volume of test solution. The vials were gently mixed and the time noted. After 24 hours, the number of survivors were counted and % mortality was determined. The test compounds were assayed at concentrations of 100 µM, 25 µM, 5 µM, 1 µM and 0.2 µM (and where appropriate concentrations of 0.04 µM and 0.008 µM).
The brine shrimp were able to survive without food in the vials over the 24 hour period and were therefore not fed.
The dose-response curves were constructed using the Sigmaplot computer program and the LC50 value was calculated from the intersection point of the curve and the 50 % mortality line. The LC50 values were expressed in both µM and µg/mL.

The subject of series [2] is Cyclo-oxygenase (COX). Nature of the series: Cyclo-oxygenase assay in RBL 2H3 cells (PGD2 EIA). Format: cell-based, rat. Particulars: final concentration of 10 µM. The method, then:
Cyclo-oxygenase (COX) assay was performed with cells in culture prepared from rat basophilic leukemia (RBL) 2H3 cell lines. Cells were cultured in EMEM containing 10% fetal calf serum and antibiotic until cells reached confluence. Harvested cells were subsequently seeded on 24-well plates at 1 x 10^6 cells/ml then incubated at 37°C for 3 hours. Cells were washed twice with incubation buffer (1.5 ml) containing 5 mM Hepes, 140 mM NaCl, 5 mM KCl, 0.6 mM MgCl2, 1 mM CaCl2 and […]. Cells were then covered with 0.49 ml of buffer, followed by addition of samples/solvents (0.005 ml) and incubated at 37 °C for 5 min on an orbital shaker. Arachidonic acid (0.005 ml, containing 50% EtOH) was subsequently added, and the plate was incubated at similar conditions for a further 10 min. The supernatant (0.1 ml) was aliquoted for methoxime derivatisation of PGD2, which was carried out by heating the supernatant with methoxime solution (1:1) at 60 °C for 30 min according to the instructions provided with the kit. The resultant solution was diluted with EIA buffer and stored on ice for EIA, following the protocol provided with the kit.
Validation of COX enzyme activity was carried out using EIA in which the enzyme activity was characterised against various concentrations of AA and a time course of enzyme activity.
[…] Indomethacin was used as reference compound. The concentration of DMSO in the assay was maintained at 1.5%.

Series [3] addresses T1, Lipoxygenase (LP) (Rattus norvegicus, UniProt P12527).
T1 construct: cell-free enzyme (Wong et al, 1991) prepared from rat basophilic leukemia (RBL) 2H3 cell lines; endogenous in cells; host or cells: RBL 2H3 (rat basophilic leukemia), 15,000 g supernatant of cells disrupted by nitrogen cavitation
T1 sequence (P12527 1-673): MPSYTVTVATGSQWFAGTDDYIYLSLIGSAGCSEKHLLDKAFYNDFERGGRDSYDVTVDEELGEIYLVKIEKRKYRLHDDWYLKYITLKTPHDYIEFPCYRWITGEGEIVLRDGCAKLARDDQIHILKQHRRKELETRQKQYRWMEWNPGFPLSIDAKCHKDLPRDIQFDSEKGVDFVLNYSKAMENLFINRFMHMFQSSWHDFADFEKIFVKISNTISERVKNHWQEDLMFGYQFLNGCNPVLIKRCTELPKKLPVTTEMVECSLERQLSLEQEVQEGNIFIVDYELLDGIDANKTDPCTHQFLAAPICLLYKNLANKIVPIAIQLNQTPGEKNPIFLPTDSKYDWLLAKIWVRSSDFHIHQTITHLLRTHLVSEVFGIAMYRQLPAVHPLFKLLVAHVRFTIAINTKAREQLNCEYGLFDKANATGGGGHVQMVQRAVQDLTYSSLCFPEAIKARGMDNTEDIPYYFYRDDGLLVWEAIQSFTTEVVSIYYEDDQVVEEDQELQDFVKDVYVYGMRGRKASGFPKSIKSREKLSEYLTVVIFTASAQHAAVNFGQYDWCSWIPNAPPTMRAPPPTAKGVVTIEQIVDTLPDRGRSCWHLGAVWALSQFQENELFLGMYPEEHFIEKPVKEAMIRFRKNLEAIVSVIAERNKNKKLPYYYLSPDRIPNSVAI
Nature of the series: Lipoxygenase assay with cell-free enzyme from RBL 2H3 cells (EIA). Format: biochemical. Conditions: final concentration of 10 µM. The method in brief: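 Cell-free enzyme from the 15,000 g supernatant of nitrogen-cavitated RBL 2H3 cells, preincubated 5 min with compound at 10 µM final (1.5% DMSO) in Hepes pH 7. Reaction started with CaCl2, ATP, PAF and arachidonic acid and run 8 min at room temperature; product quantified by EIA.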

“And” between values parts separate entries of the source, which are not always exact repeats. Equal values may be shown once. Some results are limits rather than exact numbers.

Regarding `CCCCCCCCCC(O)CCc1ccc(O)c(OC)c1` (centres unmarked) [1-(4-hydroxy-3-methoxyphenyl)dodecan-3-ol], the LC50 (usually the concentration lethal to half of the exposed cells or organisms) at 24 h in series [1] is > 100 µM and > 31 µg/mL. For the same compound, in series [2], the “Cyclooxygenase activity % activity” value was determined as 9%. Moreover, the activity at 10 µM in series [3] turned out to be 31%.

Take `CCCCCCCC(O)CCCCc1ccc(O)c(OC)c1` (centres unmarked) [1-(4-hydroxy-3-methoxyphenyl)dodecan-5-ol]: the LC50 at 24 h in series [1] was 6.6 µM and 2 µg/mL. Besides, in series [2], the “Cyclooxygenase activity % activity” value came to 12%. Moreover, the activity at 10 µM in series [3] was 35%.

Regarding `CCCCCCCC(O)CC(=O)c1ccc(O)c(OC)c1` (centres unmarked) [3-hydroxy-1-(4-hydroxy-3-methoxyphenyl)decan-1-one], the LC50 at 24 h in series [1] was 66 µM and 19 µg/mL. In addition, the “Cyclooxygenase activity % activity” value in series [2] is on record as 123%. The activity at 10 µM in series [3] was determined as 175%.

For `CCCCCCCC(=O)CC(O)CCc1ccc(O)c(OC)c1` (centres unmarked) [3-hydroxy-1-(4-hydroxy-3-methoxyphenyl)dodecan-5-one], the LC50 at 24 h in series [1] was 67 µM and 22 µg/mL. For the same compound, the “Cyclooxygenase activity % activity” value in series [2] was 18%. Moreover, the activity at 10 µM in series [3] was determined as 193%.

As for `CCCCCCCC(O)CC(=O)CCc1ccc2c(c1)OCO2` (centres unmarked) [5-hydroxy-1-(3,4-methylenedioxyphenyl)dodecan-3-one], the LC50 at 24 h in series [1] is 3 µM and 0.96 µg/mL. Also, the “Cyclooxygenase activity % activity” value in series [2] came out at 59%. Besides, in series [3], the activity at 10 µM stood at 107%.

As to `CCCCCC(O)CC(=O)CCc1ccc(O)c(OC)c1` (centres unmarked) [[6]-gingerol, 5-hydroxy-1-(4-hydroxy-3-methoxyphenyl)decan-3-one, reference compound], in series [1], the LC50 at 24 h is > 100 µM and > 29 µg/mL. For the same compound, the “Cyclooxygenase activity % activity” value in series [2] turned out to be 55%. Besides, the activity at 10 µM in series [3] was found to be 202%.

Consider `CCCCCCCC(O)CC(=O)C=Cc1ccc(O)c(OC)c1` (centres unmarked) [[8]-dehydrogingerol, 5-hydroxy-1-(4-hydroxy-3-methoxyphenyl)dodecan-1-ene-3-one, reference compound], for which, in series [1], the LC50 at 24 h is 41 µM and 13 µg/mL. For the same compound, the “Cyclooxygenase activity % activity” value in series [2] is reported as 19%. Also, in series [3], the activity at 10 µM turned out to be 37%.

On to `CCCCCCCC(O)CC(=O)CCc1ccc(O)cc1` (centres unmarked) [[8]-demethoxygingerol, 5-hydroxy-1-(4-hydroxyphenyl)dodecan-3-one], for which the LC50 at 24 h in series [1] was 25 µM and 7.3 µg/mL. In addition, in series [2], the “Cyclooxygenase activity % activity” value was determined as 63%. Besides, the activity at 10 µM in series [3] was found to be 450%.

`CCCCCCCC(O)CC(O)CCc1ccc(O)c(OC)c1` (centres unmarked) [[8]-gingerdiol, 1-(4-hydroxy-3-methoxyphenyl)dodecane-3,5-diol, reference compound]: the “Cyclooxygenase activity % activity” value in series [2] is 10%. In addition, the activity at 10 µM in series [3] was 26%.

In the case of `CCCCCCCC(O)CC(=O)CCc1ccc(O)c(OC)c1` (centres unmarked) [[8]-gingerol, 5-hydroxy-1-(4-hydroxy-3-methoxyphenyl)dodecan-3-one, reference compound], the median lethal concentration (LC50) at 24 h in series [1] is 64 µM and 21 µg/mL. Further, in series [2], the “Cyclooxygenase activity % activity” value is on record as 16%. Further, in series [3], the activity at 10 µM amounted to 65.5%.

Take `CCCCCCCC(O)CC(=O)CCc1ccc(OC)c(O)c1` (centres unmarked) [[8]-isogingerol, 5-hydroxy-1-(3-hydroxy-4-methoxyphenyl)dodecan-3-one, reference compound]: the LC50 at 24 h in series [1] is 11 µM and 3.5 µg/mL. For the same compound, the “Cyclooxygenase activity % activity” value in series [2] was determined as 23%. The activity at 10 µM in series [3] was 8%.

With `CCCCCCCC(O)CC(=O)CCc1cccc(OC)c1O` (centres unmarked) [[8]-orthogingerol, 5-hydroxy-1-(2-hydroxy-3-methoxyphenyl)dodecan-3-one], the LC50 at 24 h in series [1] was 9.6 µM and 3.1 µg/mL. Also, the “Cyclooxygenase activity % activity” value in series [2] amounted to 17%. In series [3], the activity at 10 µM turned out to be 118%.
